Measured values reported in US4588692A, “Antibiotic compounds, process for the preparation and pharmaceutical compositions thereof, methods of treatment therewith and Staphylococcus bacteria” (priority 1979, dated 1986).

Tested on: S. epidermidis NCIB 11536
Assay: Antibiotic disc sensitivities of the producer strain
Assay type: cell-based
Conditions: for Sensitive to: Amount of antibiotic/disc: strain sensitive at this disc content

| Compound | Sensitive to: Amount of antibiotic/disc | Novobiocin sensitivity (5 μg disc) |
| --- | --- | --- |
| CC1(C)S[C@@H]2[C@H](NC(=O)Cc3ccccc3)C(=O)N2[C@H]1C(=O)O [penicillin G] | 1 unit | – |
| gentamycin | 10 µg | – |
| CO[C@@H]1[C@@H](OC(N)=O)[C@@H](O)[C@H](Oc2ccc3c(O)c(NC(=O)c4ccc(O)c(CC=C(C)C)c4)c(=O)oc3c2C)OC1(C)C [novobiocin] | – | sensitive |
